Experimental data taken from US20200276139A1 (Evoke Pharma, Inc., priority 2017, published 2020).

Tests used:
[1] = Reglan package insert; cited from earlier work
[2] = Study METO-IN-006: open-label, randomized, 4-treatment crossover pharmacokinetic/bioequivalence study of intranasal metoclopramide (Gimoti 15, 16, 17 mg) vs Reglan Tablets 10 mg; type: in vivo, human; conditions: overall population; 16 and 17 mg doses; prior comparative bioavailability study
[3] = as above; type: in vivo, human; conditions: for AUC0-inf Inter-CV % (Between-Subject) / AUC0-inf Intra-CV % (Within-Subject) / AUC0-t Inter-CV % (Between-Subject) / AUC0-t Intra-CV % (Within-Subject) / Cmax Inter-CV % (Between-Subject) / Cmax Intra-CV % (Within-Subject): bioequivalence analysis over all treatments
From the text: In the study, approximately 108 healthy subjects may be enrolled to allow approximately 100 subjects to complete the study.
The pharmacokinetic study will be an open-label, randomized, 4-treatment, 4-period, 4-sequence crossover study. […] Further, the subjects will undergo screening, in which the eligibility of the subjects will be assessed after completion of inclusion and exclusion criteria. […] Samples will be collected over many hours after the dose. Subjects will return to the clinic after the minimum washout for subsequent doses until the four-period cross-over is completed.
Blood samples will be collected prior to dosing, and at predetermined time periods after each dose. […] Relevant pharmacokinetic parameters will be summarized using descriptive statistics.
Collect blood from a subject. • 2. Gently mix the collected blood prior to centrifugation and place immediately on ice. • 3. Centrifuge the sample in a refrigerated centrifuge. • 4. Immediately following centrifugation, gently remove plasma from the packed cells. • 5. Freeze the plasma samples immediately at approximately −20° C. or lower.

## CCN(CC)CCNC(=O)c1cc(Cl)c(N)cc1OC [metoclopramide, 4-amino-5-chloro-N-(2-(diethylamino)ethyl)-2-methoxybenzamide]
[1]
  plasma protein binding: approximately 30%
  volume distribution of metoclopramide: approximately 3.5 L/kg
[2]
  bioequivalence criteria for AUC: met the bioequivalence criteria
[3]; Female
  AUC0-inf Inter-CV % (Between-Subject): 43.72%
  AUC0-inf Intra-CV % (Within-Subject): 48.14%
  AUC0-t Inter-CV % (Between-Subject): 43.12%
  AUC0-t Intra-CV % (Within-Subject): 52.62%
  Cmax Inter-CV % (Between-Subject): 35.03%
  Cmax Intra-CV % (Within-Subject): 58.04%
[3]; Male
  AUC0-inf Inter-CV % (Between-Subject): 44.81%
  AUC0-inf Intra-CV % (Within-Subject): 55.82%
  AUC0-t Inter-CV % (Between-Subject): 52.65%
  AUC0-t Intra-CV % (Within-Subject): 62.88%
  Cmax Inter-CV % (Between-Subject): 54.25%
  Cmax Intra-CV % (Within-Subject): 78.31%
[3]; each dose of metoclopramide tested
  AUC∞, AUCt, and Cmax, women versus men: significantly higher in women than in men
[3]; review of data of both studies
  Treatment Emergent Adverse Events (TEAEs) and other safety parameters, males vs females: no differences between males and females
